In data set [1] the test system is DSS-induced colitis mice. Put plainly: DSS-induced colitis in mice, wortmannin by oral gavage. It counts as in vivo. To be noted: DSS 5% 7 days, wortmannin 1.5 mg/kg oral gavage daily from day 2; day 7; DSS alone mean DAI 4; scale 0 to 4. On the procedure:
(§1) 60 male C57/bl6 mice aged 8 weeks and weighed around 20 g were administered with 5% (w/v) dextran sulfate sodium (DSS) in drinking water for 7 days. DSS used was 5000 MW sulfated polysaccharide (Sigma Chemical Co., St. Louis, Mo.). It is believed that DSS has direct cytotoxic effects on epithelial cells, immune cell function interference, and luminal microflora. DSS-induced inflammatory bowel disease (IBD) was characterized by epithelial damage, mucosal inflammatory infiltrates, and luminal ulceration similar to ulcerative colitis (see FIG. 1, panels A and B).
A validated clinical disease activity index (DAI) (Murano, et al., 2000; Murthy, et al., 1993) ranging from a score of 0 to 4 was calculated by an investigator blinded to the protocol using the following parameters: stool consistency, presence of fecal blood, and changes in body weight (Murano, et al., 2000). The stool consistency was assessed using the following four point scale: 0, normal; 1, soft; 2, very soft but formed; and 3, liquid. The intensity of the hemoccult paper test was scored by the following scale: 0, negative; 1, faintly blue; 2, moderately blue; 3, dark blue; and 4, blood visible. […]
Histology sections of large intestine were stained with H&E to evaluate degree of inflammatory changes in the mice before and after the wortmannin treatment. Neutrophil sequestration was assessed through MPO assay. […]

The test system of data set [2] is KM20 cells. Put plainly: DNA fragmentation assay (Cell Death Detection ELISA), KM20 cells. It counts as cell-based, human. The settings on record: TRAIL 100 ng/mL. As for the experimental part:
(§2) Cells were transfected with pik3r1, Akt1 or scrambled siRNA. After 48 h, adherent cells were detached by rapid trypsinization, counted in a Hausser chamber and seeded at a density of 2×10^3 cells per well in 96-well flat-bottom microtiter plates and incubated in 250 μl of growth medium for 24 h at 37° C. Media were removed and either new complete media or TRAIL (100 ng/mL) was added in a final volume of 200 μL and allowed to grow for 24 h at 37° C. After treatment, DNA fragmentation was evaluated by examination of cytoplasmic histone-associated DNA fragments (mono- and oligonucleosomes) using a Cell Death Detection ELISA^Plus kit (Roche Molecular Biochemicals) according to the manufacturer's instructions and as previously described (Wang. et al., 2002). The experiments were repeated on at least 3 separate occasions.
Background: An ELISA detects its analyte on a solid surface through an enzyme-linked reagent.

The test system of data set [3] is DSS-induced colitis mice. The data set can be described thus: DSS-induced colitis in mice, intrarectal siRNA. It counts as in vivo. On the procedure:
as §1
A validated clinical disease activity index (DAI) (Murano, et al., 2000; Murthy, et al., 1993) ranging from a score of 0 to 4 was calculated by an investigator blinded to the protocol using the following parameters: stool consistency, presence of fecal blood, and changes in body weight (Murano, et al., 2000). The stool consistency was assessed using the following four point scale: 0, normal; 1, soft; 2, very soft but formed; and 3, liquid. The intensity of the hemoccult paper test was scored by the following scale: 0, negative; 1, faintly blue; 2, moderately blue; 3, dark blue; and 4, blood visible.
(§3) Inflammatory bowel disease (IBD) was induced in 2-month-old C57/bl6 mice using a 5% dextran sulfate sodium (DSS) solution in drinking water. siRNA directed to either p85α or Akt1 or siCONTROL was given on days 2, 3 and 4 of DSS exposure. Due to the short half-life of siRNA in vivo, siSTABLE was used which renders siRNA more resistant to degradation resulting in a half-life of 5 days. For each mouse, 5 μg of siRNA in 25 μl of transfection buffer was transferred into a sterile Eppendorf tube. In a separate sterile polystyrene tube 20 μg of DOTAP was mixed with 70 μl transfection buffer and then the siRNA mixture was transferred to the polystyrene tube containing the DOTAP and then incubated at room temperature for 30 min. Around 100 μl of the mixture was administered via the anus, by slow instillation into the lumen of the colon using a 20-gauge catheter and a 1-ml syringe. After treatment, mice were suspended head down for 30 sec. The colonic enema was performed on the second day of DSS exposure and repeated 24 and 48 h later. Cy-3 labeled siRNA were prepared for the treatment and administered as described above; mice were sacrificed at 4 and 24 hours after treatment and spleen, liver, pancreas and colon samples organs were taken and then frozen in liquid N2. Sections (6 μm) were cut with a cryostat microtome, thaw-mounted on a glass slide (cleaned with ethanol) and analyzed by fluorescent light microscopy (excitation λ=570 ηm).
Neutrophil sequestration was measured by MPO activity determination using the O-dianisidine method as previously described (Barone, et al., 1991). Whole tissue protein (100 μg) extract was used to measure the MPO activity. Activity was expressed as the amount of enzyme necessary to generate a change in absorbance of 1.0 per min per mg wet weight of tissue.
Tissue protein (100 μg) was placed in 96-well plates. Expression of IL-1β and IL-6, TNFα, and p65 NF-κB protein in whole tissue lysates was determined using anti-mouse cytokine ELISA kits from Pierce Biotechnology, Inc. (Rockford, Ill.) as previously described (Slogoff, et al., 2004). Cytokine expression of MIP-2 was determined with an anti-mouse MIP-2 ELISA purchased from Assay Designs, Inc. (Ann Arbor, Mich.). Each ELISA was performed according to the manufacturer's instructions.
Excised colons were evaluated for approximate length, for blood content, stool consistency, and general appearance of bowel wall. Histological examination was performed on three samples of the colon from each animal. The samples were fixed in 10% buffered formalin, dehydrated in ethanol, and then embedded in paraffin. Sections (4 μm) were then prepared and stained with hematoxylin and eosin.

For data set [4], the system named is PI3K/Akt pathway. Put plainly: Western blot of colon from mice given DSS and intrarectal siRNA. It counts as in vivo. On the procedure:
as §3
Western immunoblot analyses were performed as described previously (Wang, et al., 2002). Individual colon samples were homogenized using a Polytron power homogenizer in cell lysis buffer at 4° C. for 30 min. Lysates were clarified by centrifugation (8,000 g for 20 min at 4° C.), and sonicated for 30-45 sec on ice. Protein concentrations were determined using the method of Bradford (1976). Total protein (100 μg) was resolved on a 10% polyacrylamide gel and transferred to Immobilon-P […] membranes as described previously (Wang, et al., 2002). Filters were incubated overnight at 4° C. in blocking solution followed by a 1-h incubation with primary antibodies. Filters were washed three times in blocking solution and incubated with horseradish peroxidase-conjugated secondary antibody for 1 h. After three additional washes, the immune complexes were visualized by enhanced chemiluminescence (ECL) from Amersham (Arlington Heights, Ill.).
A general note: In western blotting, separated proteins are transferred to a membrane and probed.

The subject of data set [5] is severe acute pancreatitis mice. The data set can be described thus: CMDE diet model of severe acute pancreatitis in mice. It counts as in vivo. As for the experimental part:
Choline and methionine deficient with ethionine (CMDE) was used to generate pancreatitis model in mice. Female Swiss-Webster mice were divided into two groups: control siRNA or p85α siRNA treatment group. Mice were injected with 10 μg control or p85α siRNA 3 days before and 1 day after starting experiment using hydrodynamic tail vein method. Mice were fed CMDE diet for 3 days. Ethionine (250 mg/kg, twice a day) was fed via gavage. After being fed with CMDE diet for 3 days, mice were fed with regular lab food. The mortality for 7 days was assessed in both groups.

For data set [6], the system named is KM12C cells. The data set can be described thus: DNA fragmentation assay (Cell Death Detection ELISA), KM12C cells. It counts as cell-based, human. To be noted: TRAIL 100 ng/mL. As for the experimental part:
as §2

[7] abbreviates: DSS, after day 3, values near control levels by day 7.
[8] abbreviates: colon, compared to DSS+control siRNA.

As for `COC[C@H]1OC(=O)c2coc3c2[C@@]1(C)C1=C(C3=O)[C@@H]2CCC(=O)[C@@]2(C)C[C@H]1OC(C)=O` [wortmannin, Wortmannin], in data set [1], the “mean DAI score” value is 2.
Z-DEVD-fmk [reference compound]: the “induction of apoptosis mediated by the combination of TRAIL and pik3r1 or Akt1 siRNA” value in data set [2] (KM20 cells pretreated with the caspase-3 inhibitor) was “completely blocked”.
Consider “p85α siRNA: siSTABLE siRNA duplex to Mus musculus p85α mRNA; sense gcagcaaccgaaacaaagcuu (SEQ ID NO:2), antisense gcuuuguuucgguugcugcuu (SEQ ID NO:3) (sense GCAGCAACCGAAACAAAGCUU; antisense GCUUUGUUUCGGUUGCUGCUU; siSTABLE chemically modified siRNA, pattern not given here)”, for which the “gross changes in the colon associated with DSS treatment (shortening, intraluminal hemorrhage, necrosis)” value in data set [3] (5 μg siRNA with DOTAP intrarectally on days 2, 3 and 4 of DSS) was “abrogated”. Further, the “preventing the bowel shortening, mucosal wall thinning and blood in the colon (comparison of the two siRNA)” value in data set [3] (DSS, intrarectal siRNA) is given as “more effective than siRNA to Akt1”. Also, in data set [3] (setting [7]), the “disease activity index (DAI), course” value is “stabilized and then improved”; the “weight loss, course” value was “stabilized and then improved”. Also, in data set [3] (setting [8]), the “cytokine tissue levels (IL-1β, IL-6, MIP-2, TNFα)” value is given as “significantly attenuated”; the “neutrophil sequestration (MPO activity)” value is “significantly attenuated”; the “p65 NF-κB activity” value was “significantly attenuated”. In data set [3] (compared with DSS and control siRNA), the “leukocyte infiltration and mucosal damage (colonic histology)” value is “decreased”. Also, in data set [4], the “Akt expression in colon” value is listed as “not altered” and the “p110δ expression in colon” value is listed as “not altered”. In data set [4] (normal and DSS-treated colon), the “p85α expression in colon” value was “decreased”. Besides, the “pAkt expression in colon” value in data set [4] (untreated and DSS-treated colon) is “decreased”. In data set [5] (10 μg siRNA by hydrodynamic tail vein 3 days before and 1 day after start), the “edema and bleeding in pancreas” value is “no edema and bleeding”. In data set [5] (after 7 days), the “mice died (mortality)” value was 30%.

B1: TNF-related apoptosis-inducing ligand (protein, UniProt P50591 1-281, looked up)
Tumor necrosis factor ligand …: MAMMEVQGGPSLGQTCVLIVIFTVLLQSLCVAVTYVYFTNELKQMQDKYSKSGIACFLKEDDSYWDPNDEESMNSPCWQVKWQLRQLVRKMILRTSEETISTVQEKQQNISPLVRERGPQRVAAHITGTRGRSNTLSSPNSKNEKALGRKINSWESSRSGHSFLSNLHLRNGELVIHEKGFYYIYSQTYFRFQEEIKENTKNDKQMVQYIYKYTSYPDPILLMKSARNSCWSKDAEYGLYSIYQGGIFELKENDRIFVSVTNEHLIDMDHEASFFGAFLVG
notes: apoptosis-inducing agent
In the case of B1, the “effect of TRAIL alone on cell growth” value in data set [2] (KM20 cells) and in data set [6] was “no effect” in each case.

Values taken from US20050272682A1, “SiRNA targeting PI3K signal transduction pathway and siRNA-based therapy” (priority 2004, published 2005).
